Test results taken from PubChem BioAssay (NCI).
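The compound was tested at five concentrations on cells cultured in 96-well plates, with a 48-hour exposure period. At the TGI there is no net growth.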 Where a SMILES comes first, the peptide text is derived from it. The star is where a group is joined. Boc = CC(C)(C)OC(=O)*; OBn = c1ccc(CO*)cc1

Assays:
Assay in all cases: NCI-60 cell line screen, 48 h
[1] = tested on: KM12 colon
[2] = tested on: MDA-N
[3] = tested on: OVCAR-8 ovarian
[4] = tested on: RXF 393 renal
[5] = tested on: SF-295 CNS
[6] = tested on: SF-539 CNS
[7] = tested on: SK-MEL-2 melanoma
[8] = tested on: SK-MEL-28 melanoma
[9] = tested on: SW-620 colon
[10] = tested on: U251 CNS

Row | SMILES | TGI [1] [µM] | TGI [2] [µM] | TGI [3] [µM] | TGI [4] [µM] | TGI [5] [µM] | TGI [6] [µM] | TGI [7] [µM] | TGI [8] [µM] | TGI [9] [µM] | TGI [10] [µM]
1 | CC(C)CC(NC(=O)C(Cc1ccccc1)NC(=O)C(Cc1ccccc1)NC(=O)OC(C)(C)C)C(=O)OCc1ccccc1 (stereo not drawn) (Boc-Phe-Phe-Leu-OBn; configuration not given here) | > 100 | > 100 | > 100 | > 100 | > 100 | > 100 | > 100 | > 100 | > 100 | > 100
2 | Cc1ccc(C)c(COCCOCn2c(=O)[nH]c(=O)c3cc(Br)ccc32)c1 | > 100 | > 100 | > 100 | > 100 | > 100 | > 100 | > 100 | > 100 | > 100 | > 100
3 | CNc1nc2c(C)ccc3[nH]c(N(C)C)nc3c-2n1 | > 100 | > 100 | > 100 | > 100 | > 100 | 64.5 | > 100 | > 100 | > 100 | > 100
4 | Cc1cccc(C(=O)O)c1CC1NCCC2c3ccccc3NC12 (stereo not given) | > 100 | > 100 | > 100 | > 100 | > 100 | > 100 | > 100 | > 100 | > 100 | > 100
5 | COCn1c(C)c(C)c2c(=O)oc(C)nc21 | > 100 | > 100 | > 100 | > 100 | > 100 | > 100 | > 100 | > 100 | > 100 | > 100
6 | CC(=O)OC1[C@H](n2ccnc2)C[C@H]2[C@@H]3CC=C4CC(N5CCCC5)CC[C@]4(C)[C@H]3CC[C@]12C (stereo not given in full) | > 100 | > 100 | > 100 | 43.7 | 41 | 36.8 | 54.7 | 60.4 | > 100 | > 100
7 | Cc1cc(C)c2c(=O)cc(-c3ccc4ccccc4c3)[nH]c2n1 | > 52.7 | 17.2 | > 100 | > 100 | > 93 | > 93.4 | > 100 | > 100 | > 100 | 65.7
8 | Cc1[nH]c(=O)nc(N(CCO)/N=C/c2ccc(Cl)cc2)c1C(=O)Nc1ccc(Cl)cc1 | > 100 | > 100 | > 100 | 76.3 | > 100 | > 100 | > 100 | > 100 | > 100 | 69.2
9 | COc1cc(C(=O)OCCn2[nH]c(-c3ccc(Cl)cc3)nc2=S)cc(OC)c1OC | > 100 | > 100 | > 100 | > 100 | > 100 | > 100 | > 100 | > 100 | > 100 | > 100
10 | CC(=O)c1ccccc1NS(=O)(=O)c1ccc2nc(C)n(NS(=O)(=O)c3ccccc3C(C)=O)c(=O)c2c1 | > 100 | > 100 | > 100 | > 100 | > 100 | > 100 | > 100 | > 100 | > 100 | > 100
11 | COc1ccccc1/C=C/c1nc2ccccc2o1 | > 10 | > 10 | > 10 | > 10 | > 10 | > 10 | > 10 | > 10 | > 10 | > 10
12 | CC(=O)OC(=C(C#N)C#N)c1nccnc1C(C)=O | 14 | 17.3 | > 20 | 15.7 | > 20 | > 20 | > 20 | > 20 | > 20 | > 20
13 | O=C1C=C2CC[C@H]3[C@@H]4CC[C@H](Oc5c6ccccc6nc6ccccc56)[C@H]4CC[C@@H]3[C@H]2CC1 | > 100 | 75.2 | > 100 | 91.5 | > 100 | > 100 | > 100 | > 100 | > 100 | > 100
14 | COc1ccc(N(C(=O)NCCO)c2ccccc2)cc1 | > 100 | > 100 | > 100 | > 100 | > 100 | > 100 | > 100 | > 100 | > 100 | > 100
15 | N#CCCN(CCC#N)c1ccc(C(N=Nc2ccc(Cl)cc2)=Nc2ccc(Cl)cc2)cc1 | 44.1 | 40.8 | 31.4 | 29.1 | 29.2 | 38.6 | 25 | > 100 | 34.3 | 33.2
16 | O=S(=O)(/N=C(\NO)Nc1ccc(Cl)cc1)C1CC=C(c2ccon2)S1 (stereo not given) | > 100 | > 100 | > 100 | 87.3 | > 100 | 16.9 | 55.1 | > 100 | > 100 | > 100
